Results on 19 compounds are retold here after patent publication US20220153728A1, “COMPOUNDS, COMPOSITIONS AND METHODS” (DENALI THERAPEUTICS INC., priority 2017, published 2022).

Chain of LRRK2 G2019S (Q5S007 whole entry G2019S): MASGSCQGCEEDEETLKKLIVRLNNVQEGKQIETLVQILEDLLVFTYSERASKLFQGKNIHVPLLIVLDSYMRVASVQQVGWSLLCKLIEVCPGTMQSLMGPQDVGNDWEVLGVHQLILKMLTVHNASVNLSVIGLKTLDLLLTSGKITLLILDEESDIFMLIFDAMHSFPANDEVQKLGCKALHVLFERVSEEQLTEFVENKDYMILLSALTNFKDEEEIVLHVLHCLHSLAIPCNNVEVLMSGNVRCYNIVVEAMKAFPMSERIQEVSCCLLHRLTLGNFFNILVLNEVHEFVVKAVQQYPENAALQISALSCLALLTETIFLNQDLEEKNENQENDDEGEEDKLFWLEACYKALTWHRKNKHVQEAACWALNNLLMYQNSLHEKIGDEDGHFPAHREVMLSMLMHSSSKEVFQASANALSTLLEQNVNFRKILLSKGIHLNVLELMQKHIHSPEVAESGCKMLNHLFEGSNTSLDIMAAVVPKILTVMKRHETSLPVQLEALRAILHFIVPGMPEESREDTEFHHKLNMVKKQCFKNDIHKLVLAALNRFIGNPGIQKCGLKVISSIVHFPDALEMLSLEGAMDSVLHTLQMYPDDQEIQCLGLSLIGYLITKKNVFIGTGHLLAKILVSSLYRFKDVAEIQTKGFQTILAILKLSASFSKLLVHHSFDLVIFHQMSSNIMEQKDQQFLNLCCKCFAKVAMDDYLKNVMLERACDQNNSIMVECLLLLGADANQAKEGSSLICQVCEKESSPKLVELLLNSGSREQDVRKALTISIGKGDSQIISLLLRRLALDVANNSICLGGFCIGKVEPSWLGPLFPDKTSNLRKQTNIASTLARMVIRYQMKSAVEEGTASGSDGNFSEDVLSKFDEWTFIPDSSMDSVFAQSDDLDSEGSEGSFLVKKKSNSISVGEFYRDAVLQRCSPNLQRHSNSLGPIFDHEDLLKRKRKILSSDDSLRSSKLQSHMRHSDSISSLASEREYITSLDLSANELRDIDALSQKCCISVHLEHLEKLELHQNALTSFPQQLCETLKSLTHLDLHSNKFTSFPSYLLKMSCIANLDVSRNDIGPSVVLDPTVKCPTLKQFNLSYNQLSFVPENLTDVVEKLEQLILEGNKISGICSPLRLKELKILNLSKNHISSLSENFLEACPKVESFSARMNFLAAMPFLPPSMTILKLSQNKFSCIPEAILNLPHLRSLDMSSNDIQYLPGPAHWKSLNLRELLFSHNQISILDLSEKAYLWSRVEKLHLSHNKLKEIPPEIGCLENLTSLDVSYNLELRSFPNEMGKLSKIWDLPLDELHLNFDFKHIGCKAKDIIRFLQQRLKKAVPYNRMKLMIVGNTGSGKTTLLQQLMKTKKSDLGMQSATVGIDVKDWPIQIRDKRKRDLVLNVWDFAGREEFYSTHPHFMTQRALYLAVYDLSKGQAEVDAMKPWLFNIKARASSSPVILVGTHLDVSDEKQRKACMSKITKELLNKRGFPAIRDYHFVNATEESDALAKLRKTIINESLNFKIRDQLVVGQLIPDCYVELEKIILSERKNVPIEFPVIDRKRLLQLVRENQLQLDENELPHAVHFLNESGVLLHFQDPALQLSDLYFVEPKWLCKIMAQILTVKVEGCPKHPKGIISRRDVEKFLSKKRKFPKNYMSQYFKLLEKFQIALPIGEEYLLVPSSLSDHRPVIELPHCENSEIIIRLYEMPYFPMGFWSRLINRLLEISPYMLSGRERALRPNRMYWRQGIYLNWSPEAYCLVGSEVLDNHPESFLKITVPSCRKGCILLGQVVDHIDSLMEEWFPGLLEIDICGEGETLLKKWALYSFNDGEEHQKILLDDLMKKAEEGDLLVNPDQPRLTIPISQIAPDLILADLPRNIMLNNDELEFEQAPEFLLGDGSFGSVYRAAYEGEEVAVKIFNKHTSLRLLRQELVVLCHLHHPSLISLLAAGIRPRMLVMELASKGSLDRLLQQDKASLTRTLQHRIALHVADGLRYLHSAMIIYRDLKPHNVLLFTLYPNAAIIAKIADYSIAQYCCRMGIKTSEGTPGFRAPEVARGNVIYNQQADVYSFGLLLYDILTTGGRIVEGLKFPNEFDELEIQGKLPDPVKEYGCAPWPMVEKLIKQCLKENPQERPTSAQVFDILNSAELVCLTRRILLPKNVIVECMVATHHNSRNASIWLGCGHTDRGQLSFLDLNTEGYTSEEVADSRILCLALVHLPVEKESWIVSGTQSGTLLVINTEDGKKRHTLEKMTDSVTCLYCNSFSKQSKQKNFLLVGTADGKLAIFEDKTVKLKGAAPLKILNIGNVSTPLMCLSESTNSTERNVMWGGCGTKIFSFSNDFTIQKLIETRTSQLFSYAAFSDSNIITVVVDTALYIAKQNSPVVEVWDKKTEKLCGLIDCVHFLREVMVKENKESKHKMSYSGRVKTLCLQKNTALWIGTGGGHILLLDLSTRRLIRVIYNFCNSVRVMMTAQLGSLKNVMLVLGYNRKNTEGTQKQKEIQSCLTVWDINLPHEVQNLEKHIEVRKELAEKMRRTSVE

The assay deals with LRRK2 G2019S (Homo sapiens, UniProt Q5S007, G2019S). Description: LRRK2 G2019S TR-FRET kinase assay (LRRKtide substrate). The conditions noted are these: LRRK2 G2019S enzyme 5 nM, 134 μM ATP, 60 minute reaction, 23° C. The format is biochemical. The procedure:
Materials: • LRRK2 G2019S enzyme • Substrate (LRRKtide) • ATP • TR-FRET dilution buffer • pLRRKtide antibody • 384-well assay plate • DMSO
Enzyme Reaction Conditions
23° C. reaction temperature
10 μL total reaction volume
Detection Reaction Conditions
1×TR-FRET dilution buffer
2 nM antibody • 23° C. reaction temperature • 10 μL total reaction volume
Compounds are prepared by initially diluting to 1 mM with DMSO. 35 μL of reference compound solution, 35 μL of test compound solution, and 35 μL HPE are successively added to the source plate (384-well assay plate, Labcyte). The plates are centrifuged at 2500 rpm for 1 minute and sealed in foil. POD is used to perform a 3.162 fold serial dilution and 100 nL of reference compound solution, test compound solution, HPE and ZPE are transferred to assay plates. The assay plate is centrifuged at 2500 rpm for 1 minute, and sealed with foil.
To perform the enzyme reaction, 5 μL of LRRKtide substrate and kinase mixture in assay buffer is added to all wells of the assay plate. The plate is centrifuged to concentrate the mixture at the bottom of the wells. The assay plate is incubated at 23° C. for 20 minutes. Following incubation, 5 μL of 2×ATP in assay buffer is added to each well, and plates are centrifuged to concentrate the mixture at the bottom of the wells. The plate is incubated at 23° C. for 60 minutes.
To perform the detection of the reaction, EDTA completely mixed in TR-FRET dilution buffer is added to antibody reagent. 10 μL of detection reagent is added to all wells of each well of the assay plate and the plate is centrifuged to concentrate the mixture at the bottom of the wells. The plate is then incubated at 23° C. for 60 minutes. Plates are read on Perkin Elmer Envision 2104 instrument in TR-FRET mode using a 340 nm excitation filter, 520 nm fluorescence emission filter, and 490 or 495 nm terbium emission filter.
(In general: Time-resolved FRET reads energy transfer from a long-lived donor to a nearby acceptor.)
The IC50 is the midpoint of a concentration-inhibition curve. A high value points to weaker potency. Compound `CCNc1nc(Nc2cn(C3C[C@]3(C)C#N)nc2C2CC2)ncc1C(F)(F)F` (single isomer, unassigned) [Compound 4, 2-(3-cyclopropyl-4-((4-(ethylamino)-5-(trifluoromethyl)pyrimidin-2-yl)amino)-1H-pyrazol-1-yl)-1-methylcyclopropanecarbonitrile] yielded an IC50 of less than 30 nM.

Turning to `CCNc1nc(Nc2cnn(C3C[C@@H]3C#N)c2C)ncc1C(F)(F)F` (single isomer, unassigned) [Compound 18], the IC50 is less than 30 nM. The result for `CNc1nc(Nc2cn(C3C[C@@]3(C)C#N)nc2C2CC2)ncc1C(F)(F)F` (single isomer, unassigned) [Compound 2] reads less than 30 nM; that for `Cc1c(Nc2ncc(C(F)(F)F)c(NC3CC3)n2)cnn1C1C[C@@]1(C)C#N` (single isomer, unassigned) [Compound 16], less than 30 nM; that for `CNc1nc(Nc2cn(C3C[C@]3(C)C#N)nc2C2CC2)ncc1C(F)(F)F` (single isomer, unassigned) [Compound 3], less than 30 nM. For the compound `CCNc1nc(Nc2cn(C3C[C@@]3(C)C#N)nc2C)ncc1Br` (single isomer, unassigned) [Compound 12], the 50% inhibitory concentration (IC50) is less than 30 nM. For `Cc1nn(C2C[C@@]2(C)C#N)cc1Nc1ncc(C(F)(F)F)c(NC2(C)CC2)n1` (single isomer, unassigned) [Compound 14], the half-inhibitory concentration (IC50) is less than 30 nM.

Regarding `CNc1nc(Nc2cn(C3C[C@@]3(C)C#N)nc2C)ncc1C(F)(F)F` (single isomer, unassigned) [Compound 10], the IC50 is less than 30 nM. In the case of `Cc1nn(C2C[C@@]2(C)C#N)cc1Nc1ncc(C(F)(F)F)c(NC2CC2)n1` (single isomer, unassigned) [Compound 9] it was less than 30 nM. `CCNc1nc(Nc2cn(C3C[C@H]3C#N)nc2C2CC2)ncc1C(F)(F)F` (single isomer, unassigned) [Compound 17] registered an IC50 of less than 30 nM.

As to `CNc1nc(Nc2cn(C3C[C@]3(C)C#N)nc2C)ncc1C(F)(F)F` (single isomer, unassigned) [Compound 5], the IC50 was less than 30 nM. Turning to `CCNc1nc(Nc2cn(C3C[C@]3(C)C#N)nc2C)ncc1C(F)(F)F` (single isomer, unassigned) [Compound 6], the IC50 was less than 30 nM. The result for `CCNc1nc(Nc2cn(C3C[C@@]3(C)C#N)nc2C)ncc1C(F)(F)F` (single isomer, unassigned) [Compound 8] reads less than 30 nM; that for `CCNc1nc(Nc2cn(C3C[C@@]3(C)C#N)nc2C2CC2)ncc1C(F)(F)F` (single isomer, unassigned) [Compound 1, 2-(3-cyclopropyl-4-((4-(ethylamino)-5-(trifluoromethyl)pyrimidin-2-yl)amino)-1H-pyrazol-1-yl)-1-methylcyclopropanecarbonitrile], less than 30 nM. In the case of `Cc1nn(C2C[C@]2(C)C#N)cc1Nc1ncc(C(F)(F)F)c(NC2(C)CC2)n1` (single isomer, unassigned) [Compound 13] it was less than 30 nM. Consider `CCNc1nc(Nc2cn(C3C[C@]3(C)C#N)nc2C)ncc1Br` (single isomer, unassigned) [Compound 11], for which the IC50 is less than 30 nM.

As for `CCNc1nc(Nc2cnn(C3C[C@H]3C#N)c2C)ncc1C(F)(F)F` (single isomer, unassigned) [Compound 19], the IC50 was less than 30 nM. `Cc1c(Nc2ncc(C(F)(F)F)c(NC3CC3)n2)cnn1C1C[C@]1(C)C#N` (single isomer, unassigned) [Compound 15] gave an IC50 of less than 30 nM. The result for `Cc1nn(C2C[C@]2(C)C#N)cc1Nc1ncc(C(F)(F)F)c(NC2CC2)n1` (single isomer, unassigned) [Compound 7] reads less than 30 nM.
